Assay results: patent US7872018B2, “Compounds and methods for kinase modulation, and indications therefor” (Plexxikon, Inc., priority 2006, dated 2011)

Legend:
[1] = target: T1, Fms (Homo sapiens, UniProt P07333); experiment: Fms biochemical assay (AlphaScreen or 33P-ATP); settings: under the test conditions employed; read-out: IC50 toward kinase Fms
T1 construct: purchased Upstate Biotech 14-551
Text: Each sample was at 5% DMSO.

[2] = target: HGK (Homo sapiens, UniProt O95819); experiment: HGK (MAP4K4) biochemical assay (AlphaScreen); settings: under the test conditions employed; read-out: IC50 toward kinase HGK
Protocol: Substrate was 10 nM biotin-ERM (T567/T564/T558, Cell Signaling, Inc., cat#1344). MAP4K4 kinase was at 0.5 ng per sample. After incubation of the kinase reaction for 40 min at room temperature, 5 μl of donor beads and protein A acceptor beads (Perkin Elmer Life Science, cat#67606017) at final concentration 1 μg/ml in stop buffer (20 mM Tris, pH 7.4, 200 mM Nacl, 100 mM EDTA, 0.03% BSA) was added, along with Phospho-ERM Antibody (T567/T564/T558, Cell Signaling, Inc., cat#3141) at 1:1000 dilution. […] Phosphorylated substrate results in binding of the antibody which binds to protein A acceptor bead and association of the donor and acceptor beads is such that the signal correlates with kinase activity.

[3] = target: T2, Kit (Homo sapiens, UniProt P10721); experiment: c-kit biochemical assay (AlphaScreen or 33P-ATP); settings: under the test conditions employed; read-out: IC50 toward kinase Kit
T2 construct: P1332.N6 BI PTP KIT M552-K948-X COD; made in house; host or cells: E. coli BL21(DE3)RIL, co-expressed with PTP1B
Protocol: C-kit kinase was at 1 ng per sample.
The c-kit enzyme used in the above assay was either obtained from Cell Signaling Technology (Cat. #7754) or was prepared as follows: A plasmid encoding kit (DNA and encoded protein sequences shown below) was engineered using common polymerase chain reaction (PCR) methods. Complementary DNA cloned from various human tissues were purchased from Invitrogen, and these were used as substrates in the PCR reactions. Specific custom synthetic oligonucleotide primers were designed to initiate the PCR product, and also to provide the appropriate restriction enzyme cleavage sites for ligation with the plasmids. The entire sequence encoding the enzyme was made through a gene synthesis procedure, using custom synthetic oligonucleotides covering the entire coding sequence (Invitrogen, see below).

[4] = target: T3, TrkA (Homo sapiens, UniProt P04629); experiment: TrkA biochemical assay (AlphaScreen); settings: under the test conditions employed; read-out: IC50 toward kinase TrkA
T3 construct: purchased Upstate Biotech 14-571
Protocol: Compounds tested were dissolved in DMSO (1 μL) and added to a white 384-well plate (Costar #3705). […] Each sample was at 5% DMSO. The plate was then incubated for 40 minutes at room temperature.

Chain of HGK (O95819 whole entry): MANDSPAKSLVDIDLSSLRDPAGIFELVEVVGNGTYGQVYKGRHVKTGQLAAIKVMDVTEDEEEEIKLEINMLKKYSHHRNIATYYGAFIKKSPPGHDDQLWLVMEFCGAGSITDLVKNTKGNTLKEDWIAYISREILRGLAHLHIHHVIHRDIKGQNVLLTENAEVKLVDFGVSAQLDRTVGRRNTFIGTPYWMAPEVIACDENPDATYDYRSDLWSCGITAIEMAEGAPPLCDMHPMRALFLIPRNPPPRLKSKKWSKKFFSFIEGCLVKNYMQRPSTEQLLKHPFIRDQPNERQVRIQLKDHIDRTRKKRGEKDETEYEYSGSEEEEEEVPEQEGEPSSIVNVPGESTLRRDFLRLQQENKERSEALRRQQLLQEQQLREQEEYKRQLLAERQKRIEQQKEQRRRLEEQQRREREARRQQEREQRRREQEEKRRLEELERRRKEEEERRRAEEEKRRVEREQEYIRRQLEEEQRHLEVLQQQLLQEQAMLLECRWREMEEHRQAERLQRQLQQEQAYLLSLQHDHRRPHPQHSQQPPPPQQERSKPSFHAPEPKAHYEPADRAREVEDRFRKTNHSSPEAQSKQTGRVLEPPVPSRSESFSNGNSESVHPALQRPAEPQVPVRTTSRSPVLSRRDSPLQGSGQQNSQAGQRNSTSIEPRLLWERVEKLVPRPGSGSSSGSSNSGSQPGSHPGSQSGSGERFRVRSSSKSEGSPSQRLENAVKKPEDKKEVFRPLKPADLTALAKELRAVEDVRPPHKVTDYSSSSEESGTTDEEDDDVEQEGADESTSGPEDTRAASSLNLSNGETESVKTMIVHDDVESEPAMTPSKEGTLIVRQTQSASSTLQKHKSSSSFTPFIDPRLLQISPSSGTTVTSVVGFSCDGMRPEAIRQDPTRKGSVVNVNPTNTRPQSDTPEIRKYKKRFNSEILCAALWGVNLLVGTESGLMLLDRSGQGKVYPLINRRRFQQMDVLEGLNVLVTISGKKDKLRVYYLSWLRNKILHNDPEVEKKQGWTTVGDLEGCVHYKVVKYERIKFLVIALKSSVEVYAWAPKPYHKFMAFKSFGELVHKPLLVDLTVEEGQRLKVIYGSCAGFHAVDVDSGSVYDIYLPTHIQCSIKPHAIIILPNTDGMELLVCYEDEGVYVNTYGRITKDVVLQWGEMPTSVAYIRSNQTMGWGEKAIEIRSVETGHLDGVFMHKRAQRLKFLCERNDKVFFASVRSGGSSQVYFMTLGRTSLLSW
T2 sequence (P10721 552-948): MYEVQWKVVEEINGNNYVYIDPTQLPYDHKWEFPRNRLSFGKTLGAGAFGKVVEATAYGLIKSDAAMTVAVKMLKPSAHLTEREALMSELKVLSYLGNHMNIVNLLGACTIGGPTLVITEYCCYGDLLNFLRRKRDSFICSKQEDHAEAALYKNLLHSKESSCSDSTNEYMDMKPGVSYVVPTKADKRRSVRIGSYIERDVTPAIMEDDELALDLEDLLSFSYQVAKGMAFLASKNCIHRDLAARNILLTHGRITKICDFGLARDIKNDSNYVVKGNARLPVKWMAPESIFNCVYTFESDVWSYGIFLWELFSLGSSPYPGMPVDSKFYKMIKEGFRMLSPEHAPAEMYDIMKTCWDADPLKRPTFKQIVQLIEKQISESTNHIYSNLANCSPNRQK
T3 sequence (P04629 33-796): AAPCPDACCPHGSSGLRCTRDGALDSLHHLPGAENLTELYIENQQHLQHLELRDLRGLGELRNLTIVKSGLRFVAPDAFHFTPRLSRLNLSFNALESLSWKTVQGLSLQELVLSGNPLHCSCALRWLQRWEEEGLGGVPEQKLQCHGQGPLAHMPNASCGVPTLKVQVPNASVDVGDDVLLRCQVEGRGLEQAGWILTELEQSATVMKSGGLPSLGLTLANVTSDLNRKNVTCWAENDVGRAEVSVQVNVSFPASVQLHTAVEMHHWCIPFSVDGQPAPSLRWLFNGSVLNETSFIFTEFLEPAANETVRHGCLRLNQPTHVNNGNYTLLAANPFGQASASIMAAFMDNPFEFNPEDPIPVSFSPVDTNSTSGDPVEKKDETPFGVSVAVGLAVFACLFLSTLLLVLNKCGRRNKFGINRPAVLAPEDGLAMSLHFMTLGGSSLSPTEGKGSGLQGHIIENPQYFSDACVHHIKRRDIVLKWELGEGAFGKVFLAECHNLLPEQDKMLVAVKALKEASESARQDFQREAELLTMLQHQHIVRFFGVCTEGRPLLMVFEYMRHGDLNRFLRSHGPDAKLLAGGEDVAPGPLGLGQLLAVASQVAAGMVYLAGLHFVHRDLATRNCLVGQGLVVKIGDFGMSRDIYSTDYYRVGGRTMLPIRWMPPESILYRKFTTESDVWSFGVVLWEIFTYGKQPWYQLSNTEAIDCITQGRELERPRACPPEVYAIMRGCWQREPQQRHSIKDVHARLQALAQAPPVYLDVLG
T1 sequence (P07333 20-972): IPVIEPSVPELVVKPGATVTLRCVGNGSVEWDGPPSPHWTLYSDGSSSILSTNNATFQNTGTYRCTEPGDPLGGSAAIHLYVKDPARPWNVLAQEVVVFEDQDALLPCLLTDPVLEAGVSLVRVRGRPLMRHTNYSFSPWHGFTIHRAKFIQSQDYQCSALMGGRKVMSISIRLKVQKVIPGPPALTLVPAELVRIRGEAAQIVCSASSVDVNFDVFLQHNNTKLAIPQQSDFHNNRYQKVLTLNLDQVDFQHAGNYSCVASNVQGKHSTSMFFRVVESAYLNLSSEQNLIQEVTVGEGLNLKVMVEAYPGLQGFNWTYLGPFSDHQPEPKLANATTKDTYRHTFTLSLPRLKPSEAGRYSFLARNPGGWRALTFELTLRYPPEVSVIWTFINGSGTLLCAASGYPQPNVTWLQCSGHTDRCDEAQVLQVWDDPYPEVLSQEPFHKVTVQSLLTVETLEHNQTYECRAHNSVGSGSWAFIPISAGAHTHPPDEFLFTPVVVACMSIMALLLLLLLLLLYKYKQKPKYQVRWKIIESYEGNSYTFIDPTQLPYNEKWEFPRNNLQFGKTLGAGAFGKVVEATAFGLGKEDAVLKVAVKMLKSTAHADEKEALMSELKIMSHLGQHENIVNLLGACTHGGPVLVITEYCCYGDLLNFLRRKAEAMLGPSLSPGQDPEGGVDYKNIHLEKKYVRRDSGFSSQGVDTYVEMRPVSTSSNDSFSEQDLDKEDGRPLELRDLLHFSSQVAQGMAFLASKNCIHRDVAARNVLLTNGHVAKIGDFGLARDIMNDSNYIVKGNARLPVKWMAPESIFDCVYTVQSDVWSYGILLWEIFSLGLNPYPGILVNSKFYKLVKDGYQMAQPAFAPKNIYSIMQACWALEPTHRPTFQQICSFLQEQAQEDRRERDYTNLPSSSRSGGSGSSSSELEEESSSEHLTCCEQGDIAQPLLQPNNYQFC

Structure (SMILES)	IC50 [1]	also measured
COc1ccc2[nH]c(COc3cc(F)c(Cc4c[nH]c5ncccc45)cc3OC)nc2c1 [P-2113, 2-[5-Fluoro-2-methoxy-4-(1H-pyrrolo[2,3-b]pyridin-3-ylmethyl)-phenoxymethyl]-6-methoxy-1H-benzoimidazole]	≤ 10 µM	IC50 [2]: ≤ 10 µM
COc1cc(Cc2c[nH]c3ncccc23)c(F)cc1OCc1ccc(Cl)cc1 [P-1844, 3-[4-(4-Chloro-benzyloxy)-2-fluoro-5-methoxy-benzyl]-1H-pyrrolo[2,3-b]pyridine]		IC50 [4]: ≤ 10 µM
CCOc1c(OCc2sc(C)nc2C)cccc1C(=O)c1c[nH]c2ncccc12 [P-2124, [3-(2,4-Dimethyl-thiazol-5-ylmethoxy)-2-ethoxy-phenyl]-(1H-pyrrolo[2,3-b]pyridin-3-yl)-methanone]	≤ 10 µM	
CCOc1c(OCc2ccc(Cl)cc2F)cccc1C(=O)c1c[nH]c2ncccc12 [P-2123, [3-(4-Chloro-2-fluoro-benzyloxy)-2-ethoxy-phenyl]-(1H-pyrrolo[2,3-b]pyridin-3-yl)-methanone]	≤ 10 µM	
COc1cc(Cc2c[nH]c3ncccc23)ccc1OCc1ccc(CN2CCN(C)CC2)cc1 [P-1821, 3-{3-Methoxy-4-[4-(4-methyl-piperazin-1-ylmethyl)-benzyloxy]-benzyl}-1H-pyrrolo[2,3-b]pyridine]	≤ 10 µM	
CCOc1c(OCc2cccc(C)n2)cccc1C(=O)c1c[nH]c2ncccc12 [P-2122, [2-Ethoxy-3-(6-methyl-pyridin-2-ylmethoxy)-phenyl]-(1H-pyrrolo[2,3-b]pyridin-3-yl)-methanone]	≤ 10 µM	
O=C(c1cccc(OCc2ccc(Cl)cc2F)c1OCC(F)F)c1c[nH]c2ncccc12 [P-2119, [3-(4-Chloro-2-fluoro-benzyloxy)-2-(2,2-difluoro-ethoxy)-phenyl]-(1H-pyrrolo[2,3-b]pyridin-3-yl)-methanone]	≤ 10 µM	
COc1cc(Cc2c[nH]c3ncc(Cl)cc23)c(F)cc1OCc1nc2ccccc2[nH]1 [P-1976, 2-[4-(5-Chloro-1H-pyrrolo[2,3-b]pyridin-3-ylmethyl)-5-fluoro-2-methoxy-phenoxymethyl]-1H-benzoimidazole]		IC50 [4]: ≤ 10 µM
COc1cc(Cc2c[nH]c3ncccc23)c(F)cc1OCc1nc2ccccc2[nH]1 [P-1978, 2-[5-Fluoro-2-methoxy-4-(1H-pyrrolo[2,3-b]pyridin-3-ylmethyl)-phenoxymethyl]-1H-benzoimidazole]		IC50 [4]: ≤ 10 µM
Fc1cc(OCc2nc3ccccc3[nH]2)cc(F)c1Cc1c[nH]c2ncccc12 [P-2102, 2-[3,5-Difluoro-4-(1H-pyrrolo[2,3-b]pyridin-3-ylmethyl)-phenoxymethyl]-1H-benzoimidazole]	≤ 10 µM	IC50 [2]: ≤ 10 µM
O=C(c1cccc(OCc2ccc(Cl)cc2)c1OCCF)c1c[nH]c2ncccc12 [P-2118, [3-(4-Chloro-benzyloxy)-2-(2-fluoro-ethoxy)-phenyl]-(1H-pyrrolo[2,3-b]pyridin-3-yl)-methanone]	≤ 10 µM	
COc1cc(Cc2c[nH]c3ncccc23)c(F)cc1OCc1cccnc1 [P-2038, 3-[2-Fluoro-5-methoxy-4-(pyridin-3-ylmethoxy)-benzyl]-1H-pyrrolo[2,3-b]pyridine]		IC50 [4]: ≤ 10 µM
COc1cnc2[nH]cc(Cc3cc(OC)c(OCc4ccc(Cl)cc4F)cc3F)c2c1 [P-1885, 3-[4-(4-Chloro-2-fluoro-benzyloxy)-2-fluoro-5-methoxy-benzyl]-5-methoxy-1H-pyrrolo[2,3-b]pyridine]		IC50 [4]: ≤ 10 µM
O=C(c1cccc(OCc2ccc(Cl)cc2F)c1OCC1CC1)c1c[nH]c2ncccc12 [P-2120]	≤ 10 µM	IC50 [3]: ≤ 10 µM
Fc1ccc(OCc2ccccc2)c(F)c1Cc1c[nH]c2ncccc12 [P-1803, 3-(3-Benzyloxy-2,6-difluoro-benzyl)-1H-pyrrolo[2,3-b]pyridine]	≤ 10 µM	

More lines, main results first:

IC50 [1]	Structure (SMILES)	also measured
≤ 10 µM	CCOc1c(OCc2cc(C)n(C)n2)cccc1C(=O)c1c[nH]c2ncccc12 [P-2134, [3-(1,5-Dimethyl-1H-pyrazol-3-ylmethoxy)-2-ethoxy-phenyl]-(1H-pyrrolo[2,3-b]pyridin-3-yl)-methanone]	
≤ 10 µM	Fc1ccc(OCC(F)(F)F)c(Cl)c1Cc1c[nH]c2ncccc12 [P-2148, 3-[2-Chloro-6-fluoro-3-(2,2,2-trifluoro-ethoxy)-benzyl]-1H-pyrrolo[2,3-b]pyridine]	IC50 [3]: ≤ 10 µM
≤ 10 µM	COc1cc(Cc2c[nH]c3ncc(C)cc23)c(F)cc1OCc1nc2cc(Cl)ccc2[nH]1 [P-2184, 5-Chloro-2-[5-fluoro-2-methoxy-4-(5-methyl-1H-pyrrolo[2,3-b]pyridin-3-ylmethyl)-phenoxymethyl]-1H-benzoimidazole]	IC50 [3]: ≤ 10 µM; IC50 [2]: ≤ 10 µM
≤ 10 µM	O=C(c1cccc(OCc2ccc(Cl)cc2F)c1OCC(F)(F)F)c1c[nH]c2ncccc12 [P-2139, [3-(4-Chloro-2-fluoro-benzyloxy)-2-(2,2,2-trifluoro-ethoxy)-phenyl]-(1H-pyrrolo[2,3-b]pyridin-3-yl)-methanone]	IC50 [3]: ≤ 10 µM
≤ 10 µM	CCOc1c(OC(C)c2ccc(Cl)cc2Cl)cccc1C(=O)c1c[nH]c2ncccc12 (stereo not shown) [P-2138, {3-[1-(2,4-Dichloro-phenyl)-ethoxy]-2-ethoxy-phenyl}-(1H-pyrrolo[2,3-b]pyridin-3-yl)-methanone]	
≤ 10 µM	CCOc1c(OCCCN2CCOCC2)cccc1C(=O)c1c[nH]c2ncccc12 [P-2126, [2-Ethoxy-3-(3-morpholin-4-yl-propoxy)-phenyl]-(1H-pyrrolo[2,3-b]pyridin-3-yl)-methanone]	
≤ 10 µM	CCOc1c(OCc2ccc(C(F)(F)F)nc2)cccc1C(=O)c1c[nH]c2ncccc12 [P-2129, [2-Ethoxy-3-(6-trifluoromethyl-pyridin-3-ylmethoxy)-phenyl]-(1H-pyrrolo[2,3-b]pyridin-3-yl)-methanone]	
≤ 10 µM	O=C(c1cccc(OCc2c(F)cc(F)cc2F)c1OCC1CC1)c1c[nH]c2ncc(Cl)cc12 [P-2141, (5-Chloro-1H-pyrrolo[2,3-b]pyridin-3-yl)-[2-cyclopropylmethoxy-3-(2,4,6-trifluoro-benzyloxy)-phenyl]-methanone]	
≤ 10 µM	CCOc1c(OCc2cc(C)nn2C)cccc1C(=O)c1c[nH]c2ncccc12 [P-2125, [3-(2,5-Dimethyl-2H-pyrazol-3-ylmethoxy)-2-ethoxy-phenyl]-(1H-pyrrolo[2,3-b]pyridin-3-yl)-methanone]	
≤ 10 µM	CCOc1c(OC(C)c2ccncc2)cccc1C(=O)c1c[nH]c2ncccc12 (stereo not shown) [P-2135, [2-Ethoxy-3-(1-pyridin-4-yl-ethoxy)-phenyl]-(1H-pyrrolo[2,3-b]pyridin-3-yl)-methanone]	
≤ 10 µM	CCOc1c(OCc2ccc(F)cc2F)cccc1C(=O)c1c[nH]c2ncccc12 [P-2132, [3-(2,4-Difluoro-benzyloxy)-2-ethoxy-phenyl]-(1H-pyrrolo[2,3-b]pyridin-3-yl)-methanone]	
≤ 10 µM	CCOc1c(OCc2ccccc2F)cccc1C(=O)c1c[nH]c2ncccc12 [P-2127, [2-Ethoxy-3-(2-fluoro-benzyloxy)-phenyl]-(1H-pyrrolo[2,3-b]pyridin-3-yl)-methanone]	
≤ 10 µM	CCOc1c(OC(C)c2ccccc2F)cccc1C(=O)c1c[nH]c2ncccc12 (stereo not shown) [P-2133, {2-Ethoxy-3-[1-(2-fluoro-phenyl)-ethoxy]-phenyl}-(1H-pyrrolo[2,3-b]pyridin-3-yl)-methanone]	
≤ 10 µM	CCOc1c(OCc2c(F)cc(F)cc2F)cccc1C(=O)c1c[nH]c2ncccc12 [P-2137, [2-Ethoxy-3-(2,4,6-trifluoro-benzyloxy)-phenyl]-(1H-pyrrolo[2,3-b]pyridin-3-yl)-methanone]	IC50 [3]: ≤ 10 µM
≤ 10 µM	CCOc1c(OCc2ccc(N3CCOCC3)nc2)cccc1C(=O)c1c[nH]c2ncccc12 [P-2128, [2-Ethoxy-3-(6-morpholin-4-yl-pyridin-3-ylmethoxy)-phenyl]-(1H-pyrrolo[2,3-b]pyridin-3-yl)-methanone]	
≤ 10 µM	CCOc1c(OCc2ccc(-n3ccnc3)cc2)cccc1C(=O)c1c[nH]c2ncccc12 [P-2131, [2-Ethoxy-3-(4-imidazol-1-yl-benzyloxy)-phenyl]-(1H-pyrrolo[2,3-b]pyridin-3-yl)-methanone]	
≤ 10 µM	CCOc1c(OCc2ccc(Cl)cc2Cl)cccc1C(=O)c1c[nH]c2ncccc12 [P-2130, [3-(2,4-Dichloro-benzyloxy)-2-ethoxy-phenyl]-(1-pyrrolo[2,3-b]pyridin-3-yl)-methanone]	IC50 [3]: ≤ 10 µM
≤ 10 µM	COc1cc(Cc2c[nH]c3ncc(Cl)cc23)c(F)cc1OCc1nc2cc(F)ccc2[nH]1 [P-2179, 2-[4-(5-Chloro-1H-pyrrolo[2,3-b]pyridin-3-ylmethyl)-5-fluoro-2-methoxy-phenoxymethyl]-5-fluoro-1H-benzoimidazole]	IC50 [4]: ≤ 10 µM
